Results from US12565665B2, “Compositions and methods for controlled mRNA translation and stability” (TRUSTEES OF BOSTON UNIVERSITY, priority 2022, dated 2026).

What was measured:
Format in all cases: cell-based, human
editable AUG reporters = experiment: Destruction of an AUG start codon to IUG, EGFPd2/dTomato reporter, flow cytometry; conditions: 48 hours post-transfection; n=3
Source text: To test this, an ADAR substrate was designed similar to the substrates tested above, but with an AUG codon in a dsRNA hairpin with a mismatch to promote the deamination of the correct adenine (see e.g., FIG. 28b). This scheme was similarly tested with both the high affinity MS2-C and lower affinity MS2-A variants by cloning these substrates into a pcDNA3 vector with a bidirectional CMV driving the expression of dTomato and EGFPd2 (see e.g., FIG. 28c).
HEK cells were co-transfected with the two different reporter constructs (MS2-C and MS2-A) and cither filler DNA, MCP-dADAR, or MCP-ADAR. 48 hours post-transfection, cells were lifted and analyzed by flow cytometry. Transfected cells were gated by dTomato, and the median EGFPd2-to-dTomato ratio for the population was calculated per replicate (n=3) by FLOWJO. 2-Way ANOVA was performed to determine significance.

[1] = system: mRNA reporters containing different number of stop codons and/or MS2 elements; experiment: Stop codon editing assay by Western blot; conditions: HEK293FT cells; reporters with different numbers of stop codons and RNA elements
Source text: (§1) HEK 293 FT cells were co-transfected with plasmids expressing the reporter containing 2 UAG stop codons in the hairpin and a pcDNA3 construct encoding a fusion protein composed of MCP, ADAR2-DD (E488Q), and TagBFP.

UAG-MS2 editing reporter = experiment: Stop codon editing reporter (mCherry / mNeonGreen) co-transfected with ADAR variants, flow cytometry (median mNeonGreen to mCherry); conditions: n=1
Source text: For the reporter system, the inventors used the fluorescent protein-epitope tag tandem fusions of mCherry-FLAG and HA-mNeonGreen as the upstream and downstream coding regions. Without DD editing activity, translation is terminated after mCherry-FLAG. Coexpression with MCP-ADAR2-DD was hypothesized to lead to binding of MCP-DD, stop codon UAG editing to UIG, and expression of mNeonGreen (FIG. 1B).
as §1
Two days later, fluorescence microscopy images were taken of the cell populations. […] The inventors repeated the experiment and analyzed the samples by flow-cytometry.
The inventors transiently co-transfected HEK 293 FT cells with the mCherry-mNeonGreen reporter, MCP-ADAR2-DD variants containing different configurations of ALFA-tag insertions and NbALFA fusions, and uncaging constructs containing miRFP670 fused to ALFA. Without wishing to be bound by theory, it was hypothesized that the intramolecular interaction would inhibit the ADAR2-DD, but that the ALFA tag on the miRFP670 would displace the lower strength ALFA variants (PE and 78), and perhaps at high enough concentrations displace the intramolecular ALFA, and lead to increased editing.
The inventors then made an ADAR-DD variant with an inserted TEV protease cut site (amino acids ENLYFQG, SEQ ID NO: 286) between the C-terminus of ADAR2-DD and the N-terminus of SpyCatcher (FIG. 5C). The inventors co-transfected HEK 293 FT cells with the reporter construct, the ADAR-DD TEVcs variant, and the TEV protease and 48 hours later analyzed the transfected cells via flow cytometry (FIG. 5D-5E).
Mutated versions were then cloned and co-transfected with an editing reporter in the absence and presence of A-1331852, and absolute background and fold change upon drug addition were determined by flow cytometry (see e.g., FIG. 22d and table 11).

AUA reporter = experiment: Creation of a START codon (AUA to AUI), EGFPd2/dTomato reporter, flow cytometry; conditions: 48 hours post-transfection, n=3
Source text: To test this, an ADAR substrate was designed composed of a dsRNA hairpin containing both an AUA-codon with a mismatch at the second adenine to promote specific deamination to AUI (as opposed to IUA or IUI) and an MS2 operator motif (see e.g., FIG. 26b). The design of one large dsRNA hairpin was chosen to promote correct folding of RNA secondary structures. Previous studies have shown that MS2 operators in the 5′UTR of eukaryotic mRNA can lead to decreased translational efficiency when co-expressed with its corresponding coat protein (MS2 coat protein, or MCP), so high and low affinity variants of the MS2 operator (called here MS2-C and MS2-A respectively for the base at the stem loop) were tested with the idea that the lower affinity MS2-A loop would be less likely to inhibit translation by coat protein alone. As positive controls, the same loops were also designed with the correct AUG start codon.
These designs were cloned into pcDNA3 vectors containing a bidirectional CMV promoter driving constitutive dTomato and EGFPd2 (see e.g., FIG. 26c). The S′UTR and start codon of EGFPd2 were replaced with the editable start codon designs so the translational efficiency could be measured by looking at the EGFPd2 fluorescence relative to dTomato when co-expressed with MCP-ADAR. In this construct, if the correct start codon is skipped, the next AUG codon leads to a short, out of frame translation product.
HEK293FT cells were co-transfected with each of the reporter constructs (MS2-C w/ AUG start, MS2-C w/ AUA start, MS2-A w/ AUG start, and MS2-A w/ AUA start) and either filler DNA, inactivated ADAR2-DD (E396A) fused to MCP (MCP-dADAR), or active ADAR2-DD (E488Q) fused to MCP (MCP-ADAR). 48 hours post-transfection, cells were lifted and analyzed by flow cytometry. Transfected cells were gated by dTomato, and the median EGFPd2-to-dTomato ratio for the population was calculated per replicate (n=3) by FLOWJO. 2-Way ANOVA was performed to determine significance.

MCP-linker-ADAR2(E488Q)-TagBFP [MCP-ADAR]
relative EGFPd2 levels, active vs inactive ADAR, MS2-A based AUG construct (editable AUG reporters): further, significant decrease in relative EGFPd2 levels | translational efficiency, MS2-A based AUG construct (editable AUG reporters): significant decrease in translational efficiency | off-target editing of stop-codon reporters, Western blot (HA-mNeonGreen) [1]: Almost no off-target editing | Fold Change (UAG-MS2 editing reporter; 1 μM vs 0 μM A-1331852, flow cytometry): 1.03 | Flow Cytometry Values, 0 μM (median of the ratio of mNeonGreen to mCherry) (UAG-MS2 editing reporter; HEK cells co-transfected with ADAR reporter and ADAR variant, 0 μM A-1331852, two days after transfection, gated by BFP): 0.9853 | Flow Cytometry Values, 1 μM (median of the ratio of mNeonGreen to mCherry) (UAG-MS2 editing reporter; HEK cells co-transfected with ADAR reporter and ADAR variant, 1 μM A-1331852, two days after transfection, gated by BFP): 1.0147 | effect on translational efficiency from a native AUG start codon, MS2-A substrate (AUA reporter): more modest negative effect on translational efficiency | increase of relative fluorescence, MS2-C w/ AUA reporter, relative to NT (AUA reporter): not significant | relative EGFPd2/dTomato fluorescence, MS2-A w/ AUA substrate (AUA reporter): significant increase | relative fluorescence (EGFPd2-to-dTomato) of MS2-C reporters compared with filler DNA (NT) (AUA reporter; 2-Way ANOVA): significantly decreased the relative fluorescence
